Laboratory results as given in patent publication US6610694B1, “Condensed pyridazine compounds, their production and use” (Takeda Chemical Industries, Ltd., priority 1998, dated 2003).
Structures can show the parent of a compound that is named as a salt.

How the values were obtained:
guinea pig eosinophils = experiment: Suppression of LTB4-induced chemotactic reaction in guinea pig eosinophils; format: cell-based
Procedure: 1) Preparation of Guinea Pig Eosinophils
To male Hartley guinea pigs, 2 ml of equine serum (Bio-Whittaker, Inc.) was intraperitoneally administered once weekly for 8 consecutive weeks. At 48 hours after final administration, 75 ml of physiological saline was intraperitoneally injected, after which the saline was recovered and centrifuged at 400×g for 5 minutes. The resulting sediment was suspended in 5 ml of Percoll solution (density (d)=1.07) and layered on top of the multiple layers of different densities of Percoll solution (density(d)=1.112, 5 ml; d=1.095, 10 ml; d=1.090, 10 ml; d=1.085, 5 ml), followed by centrifugation at 1,000×g for 25 minutes (20° C.). The cell layer formed at the interface between densities 1.112 and 1.095 was collected. Erythrocytes present in the collected cell sediment were removed by hypotonic treatment (suspended in water for […]).
The cell sediment was washed 3 times with Hanks' solution containing 10 mM Hepes (Dojin Kagaku) (Hanks-Hepes) and suspended in a Hanks-Hepes solution containing 2% human serum albumin (Wako Pure Chemical Industry or Sigma) (Hanks-Hepes-HSA) to a final concentration of 5.56×10^6 cells/ml. Eosinophil purity was 90%, viability being over 98%.
2) Determination of Chemotactic Reaction Suppression
To a 24-well petri dish, which serves as a lower chamber, 600 μl of Hanks-Hepes-HSA solution containing LTB4 (final concentration 10^−8 M, Cascade Biochemical Ltd.), was transferred, followed by incubation at 37° C. for 30 minutes in a carbon dioxide incubator. Separately, 200 μl of eosinophil suspension (5×10^6 cells/ml), previously incubated at 37 C for 15 minutes, was added to Chemotaxicell (polycarbonate membrane, pore size 3 μm, thickness 10 μm), which serves as an upper chamber, after the upper chamber was attached to the 24-well petri dish. After 2 hours of reaction in the CO2 incubator, the Chemotaxicell was removed; 60 μl of a 2% (w/v) solution of EDTA in physiological saline was added to the liquid in the lower chamber. After the mixture was on cooled ice, the cells migrating into the lower chamber were counted using a blood cell counter [Coulter Counter (trade name)]. The test drug, dissolved in N,N-dimethyl formamide (DMF), was added to both the upper and lower chambers to a final concentration of 10^-5 M.
Chemotactic reaction suppression rate=[1−(number of migrating cells in the presence of drug/number of migrating cells in the absence of drug).]×100 Equation 2
Suppression rates of LTB4-induced chemotactic reaction by test substances (1×10^−5 M) were calculated using the above equation.
In the same manner as Experimental Example 2a, the percent suppression of LTB4-induced chemotactic reactions by various example compounds was calculated.

[1] = tested on: histamine-induced skin reactions in guinea pigs; experiment: Effect on histamine-induced skin reactions in guinea pigs (skin vascular permeability); format: in vivo, guinea pig; conditions: oral 3 mg/kg
Procedure: Effect on Histamine-induced Skin Reactions in Guinea Pigs
Male Hartley guinea pigs weighing about 500 g were used. After the dorsal hair was shaved under ether anesthesia, 1 ml of a 2.5% pontamine sky blue solution was injected intravenously administered, and then 0.1 ml of histamine at 3 μg/ml was injected intradermally into 2 sites (left and right) in the back. Thirty minutes after the injection of histamine, the animals were killed by bleeding and the skin was removed. Two perpendicular diameters (mm) of each blue spot on the inside of the skin were measured and multiplied; the mean for the two products was taken as the microvascular permeability index. Test compounds were suspended in a 5% gum arabic solution and orally administered in a volume of 0.2 ml/100 g body weight 1 hour before histamine administration. Animals in the control group received the same volume of a 5% gum arabic solution. The suppression rate of the sample for the title reaction was calculated using Equation 1, and the results are given in Table 1.
Inhibition (%) of histamine-induced skin reactions=100×(1−vascular permeability index in the presence of drug/vascular permeability index in control group) Equation 1
In the same manner as Experimental Example 1a, the effects of various example compounds on histamine-induced skin reactions in guinea pigs were examined.

[2] = same manner as Experimental Example 1a, Table 3
[3] = LTB4-induced chemotaxis, same manner as Experimental Example 2a (1×10^−5 M), Table 4

Row | SMILES | melting point | also measured
1 | CCOC(=O)CNC(=O)c1nnc2ccc(NCCCN3CCC(OC(c4ccccc4)c4ccccc4)CC3)nn12 [Example 29a, N-[6-[3-[4-(Diphenylmethoxy)piperidino]propylamino][1,2,4]triazolo[4,3-b]pyridazine-3-carbonyl]glycine ethyl ester] | 152 to 155 °C | –
2 | CCOC(=O)Cn1nc2ccc(OCCCN3CCC(OC(c4ccccc4)c4ccccc4)CC3)nn2c1=O [Example 5b, Ethyl 2-[6-[3-[4-(Diphenylmethoxy)piperidino]propoxy]-3-oxo[1,2,4]triazolo[4,3-b]pyridazin-2(3H)-yl]acetate] | 124 to 125 °C | –
3 | c1ccc(C(OC2CCN(CCCCCCOc3ccc4nncn4n3)CC2)c2ccccc2)cc1 [Example 7a, 6-[6-[4-(Diphenylmethoxy)piperidino]hexyloxy][1,2,4]triazolo[4,3-b]pyridazine Fumarate] | – | Suppression rate (%) (guinea pig eosinophils; LTB4 10^−8 M-induced chemotaxis, test substance 1×10^−5 M, Table 2): 36%; Suppression (%) of histamine-induced skin vascular permeability elevation, oral administration at 3 mg/kg ([1]; 1 hour before intradermal histamine, Table 1): 89%
4 | CC(C)(C(=O)O)n1nc2ccc(NCCCN3CCC(OC(c4ccccc4)c4ccccc4)CC3)nn2c1=O [Example 9b, 2-[6-[3-[4-(Diphenylmethoxy)piperidino]propylamino]-3-oxo[1,2,4]triazolo[4,3-b]pyridazin-2(3H)-yl]-2-methylpropionic Acid] | 181 to 185 °C | –
5 | O=c1[nH]nc2ccc(OCCCN3CCC(OC(c4ccccc4)c4ccccc4)CC3)nn12 [Example 4b, 6-[3-[4-(Diphenylmethoxy)piperidino]propoxy][1,2,4]triazolo[4,3-b]pyridazin-3(2H)-one] | 209 to 211 °C | Suppression (%) of histamine-induced skin vascular permeability elevation, oral administration at 3 mg/kg [1, 2]: 92%
6 | c1ccc(C(c2ccccc2)N2CCN(CCCCCCNc3ccc4nncn4n3)CC2)cc1 [Example 11a, 6-[6-[4-(Diphenylmethyl)-1-piperazinyl]hexylamino][1,2,4]triazolo[4,3-b]pyridazine] | 133 to 139 °C | –
7 | CC(C)(C(=O)O)c1nnc2ccc(NCCCN3CCC(OC(c4ccccc4)c4ccccc4)CC3)nn12 [Example 19a, 2-[6-[3-[4-(Diphenylmethoxy)piperidino]propylamino][1,2,4]triazolo[4,3-b]pyridazin-3-yl]-2-methylpropionic Acid] | 155 to 157 °C | –
8 | CC(C)(C)C(=O)OCOC(=O)C(C)(C)n1nc2ccc(NCCCN3CCC(OC(c4ccccc4)c4ccccc4)CC3)nn2c1=O [Example 11b, pivaloyloxymethyl 2-[6-[3-[4-(Diphenylmethoxy)piperidino]propylamino]-3-oxo[1,2,4]triazolo[4,3-b]pyridazin-2(3H)-yl]-2-methylpropionate] | 162 °C | Suppression rate (%) (guinea pig eosinophils; [3]): 100%
9 | O=C(O)CNC(=O)c1nnc2ccc(NCCCN3CCC(OC(c4ccccc4)c4ccccc4)CC3)nn12 [Example 30a, N-[6-[3-[4-(Diphenylmethoxy)piperidino]propylamino][1,2,4]triazolo[4,3-b]pyridazine-3-carbonyl]glycine] | 182 to 184 °C | –
10 | CC(C)(C)C(=O)OCn1nc2ccc(NCCCN3CCC(OC(c4ccccc4)c4ccccc4)CC3)nn2c1=O [Example 10b, 6-[3-[4-(Diphenylmethoxy)piperidino]propylamino]-2-(pivaloyloxymethyl)[1,2,4]triazolo[4,3-b]pyridazin-3(2H)-one] | 168 to 171 °C | Suppression rate (%) (guinea pig eosinophils; [3]): 55%
11 | CC(C)(NC(=O)c1nnc2ccc(OCCCN3CCC(OC(c4ccccc4)c4ccccc4)CC3)nn12)C(=O)O [Example 28a, N-[6-[3-[4-(Diphenylmethoxy)piperidino]propoxy][1,2,4]triazolo[4,3-b]pyridazine-3-carbonyl]-2,2-dimethylglycine] | 163 to 165 °C | –
12 | c1ccc(C(OC2CCN(CCCNc3ccc4nncn4n3)CC2)c2ccccc2)cc1 [Example 4a, 6-[3-(4-(Diphenylmethoxy)piperidino]propylamino][1,2,4]triazolo[4,3-b]pyridazine] | 167 to 168 °C | –
13 | CC(C)(NC(=O)c1nnc2ccc(NCCCN3CCC(OC(c4ccccc4)c4ccccc4)CC3)nn12)C(=O)O [Example 26a, N-[6-[3-[4-(Diphenylmethoxy)piperidino]propylamino][1,2,4]triazolo[4,3-b]pyridazine-3-carbonyl]-2,2-dimethylglycine] | 191 to 193 °C | –
14 | c1ccc(C(OC2CCN(CCOc3ccc4nncn4n3)CC2)c2ccccc2)cc1 [Example 6a, 6-(2-[4-(Diphenylmethoxy)piperidino]ethoxy][1,2,4]triazolo[4,3-b]pyridazine] | 149 to 150 °C | –
15 | c1ccc(C(c2ccccc2)N2CCN(CCCSc3ccc4nncn4n3)CC2)cc1 [Example 2a, 6-[3-[4-(Diphenylmethyl)-1-piperazinyl]propylthio][1,2,4]triazolo[4,3-b]pyridazine] | 143 to 144 °C | –
16 | CCOC(=O)C(C)(C)NC(=O)c1nnc2ccc(NCCCN3CCC(OC(c4ccccc4)c4ccccc4)CC3)nn12 [Example 25a, N-[6-[3-[4-(Diphenylmethoxy)piperidino]propylamino][1,2,4]triazolo[4,3-b]pyridazine-3-carbonyl]-2,2-dimethylglycine Ethyl Ester] | 165 to 167 °C | –
17 | CC(C)(C(N)=O)c1nnc2ccc(OCCCN3CCC(OC(c4ccccc4)c4ccccc4)CC3)nn12 [Example 23a, 2-[6-[3-[4-(Diphenylmethoxy)piperidino]propoxy][1,2,4]triazolo[4,3-b]pyridazin-3-yl]-2-methylpropionamide] | 133 to 136 °C | –
18 | OC(COc1ccc2nncn2n1)CN1CCN(C(c2ccccc2)c2ccccc2)CC1 (centres unmarked) [Example 15a, 6-[3-[4-(Diphenylmethyl)-1-piperazinyl]-2-hydroxypropoxy][1,2,4]triazolo[4,3-b]pyridazine] | 95 to 97 °C | –
19 | O=c1[nH]nc2ccc(NCCCN3CCC(OC(c4ccccc4)c4ccccc4)CC3)nn12 [Example 3b, 6-[3-[4-(Diphenylmethoxy)piperidino]propylamino][1,2,4]triazolo[4,3-b]pyridazin-3(2H)-one] | 156 to 170 °C | Suppression (%) of histamine-induced skin vascular permeability elevation, oral administration at 3 mg/kg [1, 2]: 94%
20 | Cn1nc2ccc(OCCCN3CCC(OC(c4ccccc4)c4ccccc4)CC3)nn2c1=O [Example 2b, 6-[3-[4-(Diphenylmethoxy)piperidino]propoxy]-2-methyl[1,2,4]triazolo[4,3-b]pyridazin-3(2H)-one] | 139 to 140 °C | –
21 | c1ccc(C(c2ccccc2)N2CCN(CCCOc3ccc4nncn4n3)CC2)cc1 [Example 1a, 6-[3-[4-(Diphenylmethyl)-1-piperazinyl]propoxy][1,2,4]triazolo[4,3-b]pyridazine] | 132 to 134 °C | –
22 | CCOC(=O)C(C)(C)n1nc2ccc(OCCCN3CCC(OC(c4ccccc4)c4ccccc4)CC3)nn2c1=O.Cl | 129 °C | –
23 | c1ccc(C(OC2CCN(CCCCCCOc3ccc4nncn4n3)CC2)c2ccccc2)cc1 (as salt: fumarate) [Example 7a, 6-[6-[4-(Diphenylmethoxy)piperidino]hexyloxy][1,2,4]triazolo[4,3-b]pyridazine Fumarate] | 144 to 146 °C | –
24 | CCOC(=O)c1nnc2ccc(NCCCN3CCC(OC(c4ccccc4)c4ccccc4)CC3)nn12 [Example 21a, Ethyl 6-[3-[4-(Diphenylmethoxy)piperidino]propylamino][1,2,4]triazolo[4,3-b]pyridazine-3-carboxylate] | 129 to 133 °C | –
